Experimental data as given in patent US8415469B2, “Compounds and methods for kinase modulation, and indications therefor” (Plexxikon Inc., priority 2005, dated 2013).

Molecular target: T1, Pim1 (Homo sapiens, UniProt P11309)
T1 construct: P1215.pET29SRI PIM1 E29-K313 HIS WT; made in house
Test: AlphaScreen kinase assay, Pim1
Type: biochemical
Conditions: read-out: IC50, activity toward kinase Pim1
Excerpt: (§1) AlphaScreen assay was used to screen additional kinases. The assay is similarly dependent on the phosphorylation of a peptide substrate. In this assay, an antibody that recognizes phosphorylated substrate is bound to an acceptor bead. The peptide substrate is attached to biotin, which binds to a donor head that contains streptavidin. Thus phosphorylated substrate is bound by antibody and streptavidin, bringing the donor and acceptor heads into close proximity when kinase is not inhibited. The donor produces singlet oxygen which results in emission from the acceptor when they are in close proximity. Conversely, when kinase is inhibited, the donor and acceptor beads are not associated and the emission from the acceptor is reduced.
(§2) AlphaScreen assays were done using compounds dissolved in DMSO to a concentration of 20 mM. The compounds were diluted accordingly to the desired final concentrations in each sample well, using 1:3 serial dilution for a total of 8 concentration points.

T1 sequence (P11309 with tags, fused parts or gaps): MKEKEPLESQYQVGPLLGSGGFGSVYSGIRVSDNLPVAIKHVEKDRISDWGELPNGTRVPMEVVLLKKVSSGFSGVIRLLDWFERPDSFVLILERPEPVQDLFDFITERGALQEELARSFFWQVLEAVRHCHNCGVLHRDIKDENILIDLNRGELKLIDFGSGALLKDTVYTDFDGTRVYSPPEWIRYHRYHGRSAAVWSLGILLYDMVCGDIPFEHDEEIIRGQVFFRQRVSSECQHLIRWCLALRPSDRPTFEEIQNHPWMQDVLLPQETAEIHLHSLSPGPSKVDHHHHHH

IC50, ≤ 10 µM:
O=C(c1ccc(O)cc1)c1c[nH]c2ncc(-c3cccs3)cc12 [Compound P-0024, (4-Hydroxy-phenyl)-(5-thiophen-2-yl-1H-pyrrolo[2,3-b]pyridin-3-yl)-methanone]
COc1ccc(F)c(C(=O)c2c[nH]c3ncc(-c4cccnc4)cc23)c1 [Compound P-0090]

Molecular target: EphA2 (Homo sapiens, UniProt P29317)
Sequence (P29317 24-976): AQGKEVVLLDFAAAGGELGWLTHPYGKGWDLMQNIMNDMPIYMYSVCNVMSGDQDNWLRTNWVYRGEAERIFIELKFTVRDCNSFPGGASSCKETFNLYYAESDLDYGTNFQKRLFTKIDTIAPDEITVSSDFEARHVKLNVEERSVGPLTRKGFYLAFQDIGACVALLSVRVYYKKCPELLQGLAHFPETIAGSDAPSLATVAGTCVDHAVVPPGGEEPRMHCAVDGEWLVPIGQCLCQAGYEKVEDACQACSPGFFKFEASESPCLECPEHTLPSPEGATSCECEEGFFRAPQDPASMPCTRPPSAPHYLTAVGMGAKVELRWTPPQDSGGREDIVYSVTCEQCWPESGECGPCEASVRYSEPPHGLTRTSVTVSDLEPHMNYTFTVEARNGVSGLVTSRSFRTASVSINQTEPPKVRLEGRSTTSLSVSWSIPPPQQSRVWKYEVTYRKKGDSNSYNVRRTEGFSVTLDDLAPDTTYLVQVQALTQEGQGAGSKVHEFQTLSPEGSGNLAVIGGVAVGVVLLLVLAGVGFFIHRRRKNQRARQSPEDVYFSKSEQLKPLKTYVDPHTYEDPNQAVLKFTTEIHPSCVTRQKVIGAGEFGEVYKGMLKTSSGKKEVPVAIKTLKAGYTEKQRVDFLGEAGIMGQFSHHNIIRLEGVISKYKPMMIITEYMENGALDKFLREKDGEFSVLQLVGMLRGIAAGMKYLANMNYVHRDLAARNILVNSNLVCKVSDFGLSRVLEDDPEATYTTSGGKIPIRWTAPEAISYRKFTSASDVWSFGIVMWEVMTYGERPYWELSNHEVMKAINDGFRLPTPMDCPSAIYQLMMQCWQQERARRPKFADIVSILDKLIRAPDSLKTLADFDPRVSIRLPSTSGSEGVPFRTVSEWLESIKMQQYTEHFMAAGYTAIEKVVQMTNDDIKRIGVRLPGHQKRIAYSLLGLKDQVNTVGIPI
Test: AlphaScreen kinase assay, EphA2
Type: biochemical
Conditions: read-out: IC50, activity toward kinase EphA2
Excerpt: as §1, §2

IC50, ≤ 10 µM:
OCCOc1ccc(F)c(Cc2c[nH]c3ncc(-c4cccnc4)cc23)c1F [Compound P-1394, 2-[2,4-Difluoro-3-(5-pyridin-3-yl-1H-pyrrolo[2,3-b]pyridin-3-ylmethyl)-phenoxy]-ethanol]
COc1cccc(C(=O)c2c[nH]c3ncc(-c4cccc(NC(C)=O)c4)cc23)c1F [Compound P-1336, N-{3-[3-(2-Fluoro-3-methoxy-benzoyl)-1H-pyrrolo[2,3-b]pyridin-5-yl]-phenyl}-acetamide]

Molecular target: T2, TEC (Homo sapiens, UniProt P42680)
T2 sequence (P42680 1-631): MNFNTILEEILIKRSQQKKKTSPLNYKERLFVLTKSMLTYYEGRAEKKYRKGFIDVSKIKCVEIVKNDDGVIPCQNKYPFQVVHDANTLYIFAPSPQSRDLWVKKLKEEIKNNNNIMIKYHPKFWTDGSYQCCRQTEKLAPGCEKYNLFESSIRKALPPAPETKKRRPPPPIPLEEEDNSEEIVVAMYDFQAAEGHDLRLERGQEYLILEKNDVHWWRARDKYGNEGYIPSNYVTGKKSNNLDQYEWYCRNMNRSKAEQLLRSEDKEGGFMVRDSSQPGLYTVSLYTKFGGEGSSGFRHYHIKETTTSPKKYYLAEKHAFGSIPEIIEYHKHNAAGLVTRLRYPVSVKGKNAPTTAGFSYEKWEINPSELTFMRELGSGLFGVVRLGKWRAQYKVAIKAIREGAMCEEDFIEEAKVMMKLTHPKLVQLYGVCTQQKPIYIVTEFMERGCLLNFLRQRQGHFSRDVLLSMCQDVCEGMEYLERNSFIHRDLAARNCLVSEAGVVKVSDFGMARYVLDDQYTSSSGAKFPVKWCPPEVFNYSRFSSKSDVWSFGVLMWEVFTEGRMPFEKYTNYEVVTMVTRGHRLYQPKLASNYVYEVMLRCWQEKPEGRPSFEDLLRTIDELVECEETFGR
Test: AlphaScreen kinase assay, TEC
Type: biochemical
Conditions: read-out: IC50, activity toward kinase TEC
Outline: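 AlphaScreen read-out: acceptor-bead emission falls when kinase is inhibited. Biotin-peptide substrate captured on streptavidin donor beads, phospho-specific antibody on acceptor beads. 8 concentrations, 1:3 dilution series, from 20 mM DMSO stocks.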

IC50, ≤ 10 µM:
O=C(O)/C=C/c1cccc(-c2cnc3[nH]cc(C(=O)c4ccccc4F)c3c2)c1 [Compound P-0033]
CN(C)S(=O)(=O)Nc1ccc(F)c(Cc2c[nH]c3ncc(-c4cccnc4)cc23)c1F [Compound P-0166]
Cc1ccccc1C(=O)c1c[nH]c2nccc(-c3ccc(C(N)=O)cc3)c12 [Compound P-0017]
Cc1ccccc1C(=O)c1c[nH]c2nccc(-c3cccc(N)c3)c12 [Compound P-0044]
CCCS(=O)(=O)Nc1ccc(F)c(C(=O)c2c[nH]c3ncc(-c4cccnc4)cc23)c1F [Compound P-0088, Propane-1-sulfonic acid [2,4-difluoro-3-(5-pyridin-3-yl-1H-pyrrolo[2,3-b]pyridine-3-carbonyl)-phenyl]-amide]

Molecular target: T3, IKK beta (Homo sapiens, UniProt O14920)
T3 sequence (O14920 1-756): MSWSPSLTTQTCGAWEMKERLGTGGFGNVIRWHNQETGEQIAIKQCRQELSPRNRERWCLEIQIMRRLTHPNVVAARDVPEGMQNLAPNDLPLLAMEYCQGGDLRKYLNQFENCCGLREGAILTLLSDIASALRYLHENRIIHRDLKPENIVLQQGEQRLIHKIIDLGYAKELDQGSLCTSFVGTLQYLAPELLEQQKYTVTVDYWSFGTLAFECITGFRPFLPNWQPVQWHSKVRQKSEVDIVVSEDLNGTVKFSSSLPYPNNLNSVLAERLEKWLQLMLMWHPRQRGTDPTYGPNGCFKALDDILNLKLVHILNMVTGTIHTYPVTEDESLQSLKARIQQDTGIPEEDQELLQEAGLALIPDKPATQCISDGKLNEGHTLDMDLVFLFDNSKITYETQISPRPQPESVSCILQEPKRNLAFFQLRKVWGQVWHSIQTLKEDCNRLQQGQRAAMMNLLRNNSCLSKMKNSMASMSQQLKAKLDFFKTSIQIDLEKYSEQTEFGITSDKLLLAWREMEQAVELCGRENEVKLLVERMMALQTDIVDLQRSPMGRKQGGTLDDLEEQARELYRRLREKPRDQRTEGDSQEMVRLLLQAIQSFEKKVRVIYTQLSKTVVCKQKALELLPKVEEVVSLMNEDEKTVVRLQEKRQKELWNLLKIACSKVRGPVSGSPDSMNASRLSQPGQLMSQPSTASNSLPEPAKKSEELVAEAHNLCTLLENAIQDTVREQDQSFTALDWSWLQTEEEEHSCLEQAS
Test: AlphaScreen kinase assay, IKK beta
Type: biochemical
Conditions: read-out: IC50, activity toward kinase IKK beta

IC50, ≤ 10 µM:
CCCS(=O)(=O)Nc1ccc(F)c(C(=O)c2c[nH]c3ncccc23)c1F [Compound P-0007, Propane-1-sulfonic acid [2,4-difluoro-3-(1H-pyrrolo[2,3-b]pyridine-3-carbonyl)-phenyl]-amide]
Fc1cc(F)cc(-c2ccnc3[nH]cc(Sc4ccccn4)c23)c1 [Compound P-0106]
Nc1ccnc2[nH]cc(C(=O)c3ccccc3)c12 [Compound P-0029]
NC(=O)c1ccc(-c2ccnc3[nH]cc(C(=O)c4cc(F)ccc4F)c23)cc1 [Compound P-0013]
NC(=O)c1ccc(-c2ccnc3[nH]cc(C(=O)c4ccccc4F)c23)cc1 [Compound P-0014]

Molecular target: T4, Erk2 (Homo sapiens, UniProt P28482)
T4 construct: P4227.pET15S ERK2/MEK1DD; His6 with thrombin site (N); made in house
T4 sequence (P28482 with tags, fused parts or gaps): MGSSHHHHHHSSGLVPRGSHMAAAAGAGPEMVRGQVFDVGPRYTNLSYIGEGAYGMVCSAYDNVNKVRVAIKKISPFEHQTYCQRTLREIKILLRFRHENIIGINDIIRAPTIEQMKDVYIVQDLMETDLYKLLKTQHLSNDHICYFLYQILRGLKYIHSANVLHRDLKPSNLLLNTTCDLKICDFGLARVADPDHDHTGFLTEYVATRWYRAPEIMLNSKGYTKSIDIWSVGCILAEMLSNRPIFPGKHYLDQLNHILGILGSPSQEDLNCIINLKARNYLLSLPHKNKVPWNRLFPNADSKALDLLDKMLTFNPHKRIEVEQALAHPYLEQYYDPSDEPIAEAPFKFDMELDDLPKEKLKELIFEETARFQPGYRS
Test: AlphaScreen kinase assay, Erk2
Type: biochemical
Conditions: read-out: IC50, activity toward kinase Erk2
Excerpt: as §1, §2

IC50, ≤ 10 µM:
Cn1cc(C(F)(F)F)c(-c2ccc(S(=O)(=O)NCc3c[nH]c4ncccc34)s2)n1 [Compound P-0041]
Cc1ccc(S(=O)(=O)NCc2c[nH]c3ncccc23)cc1 [Compound P-0058]
COc1cccc(C(=O)c2c[nH]c3ncc(-c4cccc(NC(C)=O)c4)cc23)c1F [Compound P-1336, N-{3-[3-(2-Fluoro-3-methoxy-benzoyl)-1H-pyrrolo[2,3-b]pyridin-5-yl]-phenyl}-acetamide]
